Entries after “also recorded” stand apart in the source; their conditions may differ. Read-outs that look alike come from different tables or passages of the source.
How the values were obtained:
HBV [1] = conditions: HepG2.2.15 cells; for HBV DNA, % from control: six days, secreted virion DNA
HBV [2] = assay: microbe, parasite or virus in culture; conditions: Hepatitis B virus, HepG2.2.15, 144 h, read-out: EC50 (50% reduction of HBV DNA), HepG2.2.15 cells, six days, 0–20 µM
[3] = molecular target: HBV capsid assembly (full-length HBc protein, genotype D1) (Hepatitis B virus genotype D subtype ayw, UniProt P03146, A80I/T33N/V74G); assay: HBV capsid assembly in SFV1/HBc-infected HBc-producing BHK-21 cells, native agarose gel anti-HBc immunoblot; assay type: cell-based; conditions: HBc-producing BHK-21 cells; for Type of effect on HBV capsid assembly in dose-dependent experiments: 0.1–50 µM, 24 h (Figure 6); for Effect on Capsid Assembly / Effect on Capsid Assembly, Starting Concentration: 24 h, native agarose immunoblot
BHK-21 cells [4] = assay: Cytopathic effect (cell morphology, proliferation, trypan blue) in non-infected BHK-21 cells; assay type: cell-based, hamster; conditions: 24 h
Experimental: To define HAP compound non-toxic concentrations for initial studies, non-infected BHK-21 cells were incubated with compounds at four different concentrations for 24 h (25 μM, 50 μM, 100 μM, and 200 μM), and the cytopathic effects were evaluated by analysis of cell morphology and proliferation changes. […] 1c, 1j, 1k and 4a, and 7b. The reference comp.
The cytopathic effect of the compounds was estimated by phase contrast microscopy and standard trypan blue staining, and the cells were counted using an automatic cell counter (Invitrogen). BHK-21 and HepG2.2.15 cells were incubated for 24 h with the studied compounds at […] (25, 50, 100, 150 and 200 μM) and the cell morphology was controlled under microscope to evaluate cytopathic effects (Table 1, the highest non-toxic concentration).

primary hepatocytes = test system: primary hepatocytes; set-up: method as in PMID 25921762; conditions: cited from earlier work
HepG2.2.15 cells = assay: MTT viability test in HepG2.2.15 cells (TC50); assay type: cell-based, human; conditions: 48 h, 0–200 µM
Experimental: In order to compare the cytotoxicity of compounds 1d and 1e in HBV producing HepG2.2.15 cells, the toxic concentrations (TC50 values) were estimated (Figure 9B,C).
In order to calculate the median of the toxic concentration (TC50) of the compounds, 1.33 × 10^5 HepG2.2.15 cells per well were seeded into a 24-well plate. After 24 h, the cells were treated with the test compounds at different concentrations (0, 50, 100, 150, 200 μM) and incubated for 48 h at 37 °C. All experiments were carried out in three identical repeats and the coefficient of variation and standard deviation were calculated from at least two independent experiments.
The percent inhibition at each compound concentration was calculated by normalization of the signals to the signals from non-treated HepG2.2.15 cells. […] Data points and error bars represent the means and standard deviations from at least two independent experiments, respectively. Comparisons between data groups were performed using the unpaired t test, with p values < 0.05 being considered statistically significant.

HBc protein = HBc protein (Hepatitis B virus genotype D subtype ayw, UniProt P03146, A80I/T33N/V74G); assay: Anti-HBc immunostaining and confocal microscopy of HBc-producing BHK-21 cells; assay type: cell-based; conditions: 20 μM and 50 μM, 24 h
[5] = molecular target: HBV capsids (HBc assembly products) (Hepatitis B virus genotype D subtype ayw, UniProt P03146, A80I/T33N/V74G); assay: Electron microscopy of HBc assembly products purified from treated BHK-21 cells; assay type: cell-based; conditions: 50 μM, 24 h, sucrose cushion pellet
BHK-21 cells [6] = assay: MTT viability assay in BHK-21 cells; assay type: cell-based, hamster; conditions: 6.125–200 µM, 24 h
Experimental: BHK-21 cells were incubated with different concentrations (6.125, 12.25, 25, 50, 100, and 200 µM) of the respective compounds and the cell viability was calculated as a percentage from untreated cells (100%) (Figure 7). In general, the results confirmed the morphological observation of relatively low cytotoxicity for tested compounds at concentrations below 100 µM.
Additionally, cell viability was determined by tetrazolium salt-based assay using the Vybrant MTT Cell Proliferation kit (Thermo Fisher Scientific, Waltham, MA, USA) or more sensitive CCK-8 kit (Abcam). First, the cell numbers and protocol were optimized for BHK-21 and HepG2.2.15 cells, as indicated in the MTT assay kit or CCK-8 reagent manufacturer’s protocol, and standard curves with OD values were created and evaluated.
In order to evaluate the toxicity of selected HAP compounds in the medium, 1.3 × 10^4 BHK-21 were seeded per well in 96-well plates and treated with the studied compounds for 24 h at concentrations 6.125; 12.25; 25; 50; 100; and 200 μM. Control cells without HAP compounds and MTT-free cell media were included in the experiments. The MTT test was performed according to the full protocol version (Thermo Fisher Scientific).

Chain of HBV capsid assembly (full-length HBc protein, genotype D1) (P03146 whole entry A80I/T33N/V74G, looked up): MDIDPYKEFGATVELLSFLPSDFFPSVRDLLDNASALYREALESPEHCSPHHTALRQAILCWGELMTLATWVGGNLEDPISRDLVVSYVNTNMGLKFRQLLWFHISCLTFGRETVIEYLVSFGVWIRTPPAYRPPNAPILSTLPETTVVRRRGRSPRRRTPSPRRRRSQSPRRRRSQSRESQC
Chain of HBc protein (P03146 whole entry A80I/T33N/V74G, looked up): as above
Chain of HBV capsids (HBc assembly products) (P03146 whole entry A80I/T33N/V74G, looked up): as above

Row | Compound | HBV DNA, % from control (HBV [1]; 10 µM) | EC50 (HBV [2]) | Type of effect on HBV capsid assembly in dose-dependent experiments [3] | Effect on Capsid Assembly [3] | Effect on Capsid Assembly, Starting Concentration [3] | Concentration revealing cell toxicity signs (BHK-21 cells [4]; BHK-21 cells) | The Highest Non-Toxic Concentration (BHK-21 cells [4]; non-infected BHK-21 cells, no noticeable cytopathic effect) | Toxic concentration (primary hepatocytes) | SI (TC50/EC50) (HBV [1]) | HBV DNA, % from control (HBV [1]; 20 µM) | Decrease in the amount of HBV virion release compared with control (HBV [1]; Figure 8) | TC50 (HepG2.2.15 cells) | Intracellular localization of HBc (HBc protein) | Morphology of HBc assembly products by electron microscopy [5] | Effect on capsid production / mobility in initial test ([3]; 1–50 μM, 24 h (Figure 5)) | Cell viability compared to untreated control (BHK-21 cells [6])
1 | COC(=O)C1=C(C)NC(c2ncc(F)cc2F)=NC1c1ccc(F)cc1Cl (centres unmarked) [1a, Bay 41-4109, reference compound] | 2.5% | 0.35 µM | dose-dependent HBc signal decrease | Dose dependent capsid signal decrease | 1 µM | 100 µM | 100 µM | 5.06 µM | – | – | – | – | – | – | – | –
2 | CCOCCOC(=O)C1=C(C)NC(c2ncc(F)cc2F)=NC1c1ccc(F)cc1Cl (centres unmarked) [1d] | – | 6.24 µM | dose-dependent HBc products accumulation | HBc accumulation, aggregates/or incorrect capsid structures | 5 µM | – | – | – | 28 | 6.5% | ≤ 93.5% | 175 µM | speckled dot pattern of HBc distribution in the cytoplasm; also recorded: blocked the intranuclear transport of HBc protein | irregularly shaped structures that resembled capsids of the wrong size and incorrect symmetry, as well as the capsid aggregates | misfolding of the HBV capsid | did not demonstrate the difference in cell viability

Reference: publication PMC9317397, “Design and Synthesis of Hepatitis B Virus (HBV) Capsid Assembly Modulators and Evaluation of Their Activity in Mammalian Cell Model” (Pharmaceuticals, 2022)
